Measured values: patent US11040954B1, “CXCR3 receptor agonists” (RECEPTOS LLC, priority 2016, dated 2021)

The compounds below were run against T1, CXCR3 (Homo sapiens, UniProt P49682) (assay: CXCR3 cAMP agonist assay (cAMP Hunter CHOK1 CXCR3 Gi cell line, forskolin-stimulated, HitHunter cAMP detection)). Settings: cAMP Hunter CHOK1 CXCR3 Gi cells, 20 μM forskolin, 30 minutes; read-out: Activity (CXCR3 cAMP agonist assay compound EC50).
T1 construct: host or cells: CHO-K1 (cAMP Hunter CHOK1 CXCR3 Gi cell line)
T1 sequence (P49682 1-368): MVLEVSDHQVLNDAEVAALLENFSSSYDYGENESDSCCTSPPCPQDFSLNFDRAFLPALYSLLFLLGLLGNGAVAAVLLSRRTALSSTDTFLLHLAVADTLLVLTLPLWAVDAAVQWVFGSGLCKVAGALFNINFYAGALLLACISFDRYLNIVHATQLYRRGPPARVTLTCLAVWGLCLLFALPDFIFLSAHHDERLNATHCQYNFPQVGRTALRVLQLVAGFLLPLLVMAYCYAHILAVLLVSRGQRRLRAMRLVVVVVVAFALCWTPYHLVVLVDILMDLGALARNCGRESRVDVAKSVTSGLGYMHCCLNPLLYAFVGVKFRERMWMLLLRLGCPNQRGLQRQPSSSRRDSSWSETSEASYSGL
Assay type: cell-based
Method in brief: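 Agonist activity was measured as suppression of forskolin (20 μM)-induced cAMP, read by luminescent enzyme-fragment complementation with a cAMP standard curve and CXCL11 defining full efficacy. Assay used 50,000 CXCR3 Gi CHOK1 cells/well in pH 7.4 HEPES-buffered HBSS with 0.1% BSA, compound 0-10 μM over 12 points, 30 min incubation.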

Structure (SMILES)	EC50 [nM]
COc1cc(C(F)(F)F)c(C)cc1NC(=O)[C@H](CCN)NC(=O)[C@@H]1Cc2ccccc2CN1C(=O)CCC(=O)c1ccccc1 [Compound 2-76]	50 to 250
CCc1c(NC(=O)[C@H](CCN)NC(=O)[C@@H]2Cc3ccccc3CN2C(=O)CCC(=O)c2ccccc2)ccc(Cl)c1Cl [Compound 2-48]	50 to 250
Cc1cc(NC(=O)[C@H](CCN)NC(=O)[C@@H]2Cc3ccccc3CN2C(=O)CCC(=O)N2CCC3(CCC3)C2)ccc1Cl [Compound 12-94]	< 50
[2H]C([2H])([2H])N1CCN(C(=O)CCC(=O)N2Cc3ccccc3C[C@H]2C(=O)N[C@@H](CCN)C(=O)Nc2ccc(Cl)c(C)c2)CC1 [Compound 12-118]	< 50
COc1c(C)cccc1NC(=O)[C@H](CCN)NC(=O)[C@@H]1Cc2ccccc2CN1C(=O)CCC(=O)c1ccccc1 [Compound 2-51]	50 to 250
Cc1cc(NC(=O)[C@H](CCN)NC(=O)[C@@H]2Cc3ccccc3CN2C(=O)CCC(=O)N2CCN(C)CC2)ccc1Cl [Compound 10-3]	< 50
Cc1cc(NC(=O)[C@H](CCN)NC(=O)[C@@H]2Cc3ccccc3CN2C(=O)CCC(=O)N2CC[C@H](C)C2)ccc1Cl [Compound 12-123]	< 50
COc1cc2c(cc1NC(=O)[C@H](CCN)NC(=O)[C@@H]1Cc3ccccc3CN1C(=O)CCC(=O)c1ccccc1)CCCC2 [Compound 2-59]	250 to 500
COc1ccccc1NC(=O)[C@H](CCN)NC(=O)[C@@H]1Cc2ccccc2CN1C(=O)CCC(=O)c1ccccc1 [Compound 1-35]	250 to 500
Cc1cc(NC(=O)[C@H](CCN)NC(=O)[C@@H]2Cc3ccccc3CN2C(=O)CCC(=O)N2CCC(C)(C)CC2)ncc1Cl [Compound 12-159]	< 50
Cc1cc(NC(=O)[C@@H](Cc2cc3ccccc3[nH]2)NC(=O)[C@@H]2Cc3ccccc3CN2C(=O)CCC(=O)c2ccccc2)ccc1Cl [Compound 4-5]	> 500
CCN1CCN(C(=O)CCC(=O)N2Cc3ccccc3C[C@H]2C(=O)N[C@@H](CCN)C(=O)Nc2ccc(Cl)c(C)c2)CC1 [Compound 12-99]	50 to 250
CC1(C)COCCN1C(=O)CCC(=O)N1Cc2ccccc2C[C@H]1C(=O)NC1(C(=O)Nc2ccc(Cl)c(Cl)c2F)CCNCC1 [Compound 12-127]	50 to 250
CCc1c(C)cccc1NC(=O)[C@H](CCN)NC(=O)[C@@H]1Cc2ccccc2CN1C(=O)CCC(=O)c1ccccc1 [Compound 2-53]	50 to 250
Cc1cc(NC(=O)[C@H](CCN)NC(=O)[C@@H]2Cc3ccccc3CN2C(=O)CCC(=O)c2ccccc2)c(I)cc1Cl [Compound 2-38]	< 50
NCC[C@H](NC(=O)[C@@H]1Cc2ccccc2CN1C(=O)CCC(=O)c1ccccc1)C(=O)Nc1ccc2c(c1)CCC2=O [Compound 2-69]	> 500
CC1(C)CCCN(C(=O)CCC(=O)N2Cc3ccccc3C[C@H]2C(=O)NC2(C(=O)Nc3ccc(Cl)c(Cl)c3F)CCNCC2)C1 [Compound 12-130]	< 50
COCCN(C)C(=O)CCC(=O)N1Cc2ccccc2C[C@H]1C(=O)N[C@@H](CCN)C(=O)Nc1ccc(Cl)c(C)c1 [Compound 12-113]	250 to 500

Structure (SMILES)	EC50 [nM]
CCNCC[C@H](NC(=O)[C@@H]1Cc2ccccc2CN1C(=O)CCC(=O)c1ccccc1)C(=O)Nc1ccc(Cl)c(C)c1 [Compound 8-4]	< 50
Cc1cc(NC(=O)[C@H](CCN)NC(=O)[C@@H]2Cc3ccccc3CN2C(=O)CCC(=O)N2CCN(C)C2)ccc1Cl [Compound 12-145]	< 50
Cc1cc(NC(=O)[C@H](CCN)NC(=O)[C@@H]2Cc3ccccc3CN2C(=O)CCC(=O)N2CCN(C(=O)N(C)C)CC2)ccc1Cl [Compound 12-109]	250 to 500
NCCCC[C@H](NC(=O)[C@@H]1Cc2ccccc2CN1C(=O)CCC(=O)c1ccccc1)C(=O)Nc1ccccc1F [Compound 1-15]	250 to 500
NCC[C@H](NC(=O)[C@@H]1Cc2ccccc2CN1C(=O)CCC(=O)c1ccccc1)C(=O)Nc1ccc(Cl)c(F)c1 [Compound 2-12]	250 to 500
Cc1cc(Cl)ccc1NC(=O)[C@H](CCN)NC(=O)[C@@H]1Cc2ccccc2CN1C(=O)CCC(=O)c1ccccc1 [Compound 2-10]	250 to 500
Cc1cc(NC(=O)[C@H](CCN)NC(=O)[C@@H]2Cc3ccccc3CN2C(=O)CCC(=O)N2CCCC[C@@H]2C)ccc1Cl [Compound 12-56]	< 50
CC[C@@H]1CCCCN1C(=O)CCC(=O)N1Cc2ccccc2C[C@H]1C(=O)N[C@@H](CCN)C(=O)Nc1ccc(Cl)c(C)c1 [Compound 12-112]	< 50
CC[C@@H]1CN(C(=O)CCC(=O)N2Cc3ccccc3C[C@H]2C(=O)N[C@@H](CCN)C(=O)Nc2ccc(Cl)c(C)c2)CCN1C [Compound 12-151]	< 50
Cc1cc(NC(=O)[C@H](CCN)NC(=O)[C@@H]2Cc3ccccc3CN2C(=O)CCC(=O)N2CC3CCC2CN3C)ccc1Cl (some centres unmarked) [Compound 12-146]	> 500
CC(C)c1ccc(NC(=O)[C@H](CCCCN)NC(=O)[C@@H]2Cc3ccccc3CN2C(=O)CCC(=O)c2ccccc2)cc1 [Compound 1-7]	> 500
NCC[C@H](NC(=O)[C@@H]1Cc2ccccc2CN1C(=O)CCC(=O)c1ccccc1)C(=O)Nc1ccc2c(c1Cl)CCC2 [Compound 2-77]	50 to 250
Cc1cc(NC(=O)[C@H](CCN)NC(=O)[C@@H]2Cc3ccccc3CN2C(=O)CCC(=O)N2[C@H](C)CCC[C@@H]2C)ccc1Cl [Compound 12-43]	< 50
Cc1cc(NC(=O)[C@H](CCN)NC(=O)[C@@H]2Cc3ccccc3CN2C(=O)CCC(=O)N2CCCCC2)ccc1Cl [Compound 10-1, (S)—N—((S)-4-amino-1-((4-chloro-3-methylphenyl)amino)-1-oxobutan-2-yl)-2-(4-oxo-4-(piperidin-1-yl)butanoyl)-1,2,3,4-tetrahydroisoquinoline-3-carboxamide]	< 50
CN1CCN(C(=O)CCC(=O)N2Cc3ccccc3C[C@H]2C(=O)N[C@@H](CCN)C(=O)Nc2ccc(Cl)c(Cl)c2F)CC1 [Compound 10-4]	< 50
Cc1cc(NC(=O)[C@H](Cc2ccccn2)NC(=O)[C@@H]2Cc3ccccc3CN2C(=O)CCC(=O)c2ccccc2)ccc1Cl [Compound 3-5]	50 to 250
Cc1cc(NC(=O)[C@H](CCN)NC(=O)[C@@H]2Cc3ccccc3CN2C(=O)CCC(=O)N(C)CCC(C)(C)C)ccc1Cl [Compound 12-98]	< 50

Results, then the compound that gave them:

EC50 [nM]	Structure (SMILES)
50 to 250	NCC[C@H](NC(=O)[C@@H]1Cc2ccccc2CN1C(=O)CCC(=O)N1CCCC[C@H]1CO)C(=O)Nc1ccc(Cl)c(Cl)c1F [Compound 15-19]
< 50	NCC[C@H](NC(=O)[C@@H]1Cc2ccccc2CN1C(=O)CCC(=O)N1CC2CCCCC2C1)C(=O)Nc1ccc(Cl)c(Cl)c1F (some centres unmarked) [Compound 15-54]
< 50	O=C(CCC(=O)N1Cc2ccccc2C[C@H]1C(=O)N[C@@H](CCN1CCC(O)CC1)C(=O)Nc1ccc2c(c1)CCC2)c1ccccc1 [Compound 28-1, (S)—N—((S)-1-((2,3-dihydro-1H-inden-5-yl)amino)-4-(4-hydroxypiperidin-1-yl)-1-oxobutan-2-yl)-2-(4-oxo-4-phenylbutanoyl)-1,2,3,4-tetrahydroisoquinoline-3-carboxamide]
> 500	CN(C(=O)CCC(=O)N1Cc2ccccc2C[C@H]1C(=O)N[C@@H](CCN)C(=O)Nc1ccc(Cl)c(Cl)c1F)C1CC1 [Compound 15-41]
< 50	NCC[C@H](NC(=O)[C@@H]1Cc2ccccc2CN1C(=O)CCC(=O)N1CCCC[C@@H]1CO)C(=O)Nc1ccc(Cl)c(Cl)c1F [Compound 15-18]
50 to 250	Cc1cc(NC(=O)C(CCC2(N(C)C)COC2)NC(=O)[C@@H]2Cc3ccccc3CN2C(=O)CCC(=O)c2ccccc2)ccc1Cl (stereo partly drawn) [Compound 21-1, (3S)—N-(1-((4-chloro-3-methylphenyl)amino)-4-(3-(dimethylamino)oxetan-3-yl)-1-oxobutan-2-yl)-2-(4-oxo-4-phenylbutanoyl)-1,2,3,4-tetrahydroisoquinoline-3-carboxamide]
< 50	Cc1ccc(OC(F)(F)F)c(NC(=O)[C@H](CCN)NC(=O)[C@@H]2Cc3ccccc3CN2C(=O)CCC(=O)c2ccccc2)c1 [Compound 14-25]
< 50	CC1(C)CCCN(C(=O)CCC(=O)N2Cc3ccccc3C[C@H]2C(=O)N[C@@H](CCN2CCC(O)CC2)C(=O)Nc2ccc(Cl)c(Cl)c2F)C1 [Compound 26-3]
> 500	Cc1cccc(Cl)c1NC(=O)[C@H](CCN)NC(=O)[C@@H]1Cc2ccccc2CN1C(=O)CCC(=O)c1ccccc1 [Compound 14-10]
50 to 250	NCC[C@H](NC(=O)[C@@H]1Cc2ccccc2CN1C(=O)CCC(=O)c1ccccc1)C(=O)Nc1cc(F)c(Cl)c(Cl)c1 [Compound 27-6]
50 to 250	COc1cc(Cl)ccc1NC(=O)[C@H](CCN)NC(=O)[C@@H]1Cc2ccccc2CN1C(=O)CCC(=O)c1ccccc1 [Compound 13-4]
< 50	Cc1c(Cl)ccc(NC(=O)[C@H](CCN)NC(=O)[C@@H]2Cc3ccccc3CN2C(=O)CCC(=O)c2ccccc2)c1Cl [Compound 14-3]
< 50	NCC[C@H](NC(=O)[C@@H]1Cc2ccc(F)cc2CN1C(=O)CCC(=O)N1CCCC2(CCC2)C1)C(=O)Nc1ccc(Cl)c(Cl)c1F [Compound 15-58]
50 to 250	CCc1c(Cl)ccc(NC(=O)[C@H](CCN)NC(=O)[C@@H]2Cc3ccccc3CN2C(=O)CCC(=O)c2ccccc2)c1Cl [Compound 14-21]
250 to 500	Cc1ccc(NC(=O)[C@H](CCN)NC(=O)[C@@H]2Cc3ccccc3CN2C(=O)CCC(=O)c2ccccc2)c(C(F)(F)F)c1 [Compound 14-13]
